Here are results for one molecule from patent US20110091638A1, “METHOD OF ANIMAL SLAUGHTER” (priority 2007, published 2011).

In data set [1] the test system is Atlantic salmon (Salmo salar). Put plainly: Atlantic salmon transferred into CO saturated seawater. As to the method:
(§1) Mackerel (Scomber scombrus) of about 700 g bodyweight were transferred from seawater into CO saturated seawater at about 16° C. in a 1 m×1 m plastic tank. CO saturation was achieved by pre-flushing the seawater (250 L) with 99.3% pure carbon monoxide (from Yara AS, Norway) for 5 minutes at 2.0 bar through two Wedge-lock diffusers (from Sterner Aqua, Norway). The CO content was monitored and never exceeded 50 ppm in the vicinity of the tank.
Atlantic salmon (Salmo salar) of 0.7 to 1.5 kg bodyweight were transferred from seawater into CO saturated seawater (as in Example 1).

Data set [2] has as its system Atlantic halibut (Hippoglossus hippoglossus). Briefly: Atlantic halibut transferred into CO saturated seawater. As to the method: as §1
Atlantic halibut (Hippoglossus hippoglossus) of about 1.5 kg bodyweight were transferred into CO saturated seawater (as in Example 1).

For data set [3], the system named is Mackerel (Scomber scombrus). Put plainly: Mackerel transferred into CO saturated seawater. As to the method: as §1

The structures appear in SMILES notation.

As to `[C-]#[O+]` [carbon monoxide], the “further exposure time until fish died and turned belly up” value is “more than one” in data set [1] (continued exposure after anaesthesia) and 5 min in data set [3] (continued exposure after signs of fatigue). Besides, the “time until fish were relaxed, sedated and finally anesthetised” value in data set [1] (salmon 0.7 to 1.5 kg) is given as “about 5 minutes”. Also, the “signs of stress or discomfort during exposure” value in data set [1] (until anaesthesia) is recorded as “no signs of stress or discomfort”. In addition, in data set [2] (continued exposure after loss of flight reaction), the “further exposure time until fish died” value was “two”. The “time until flight reaction was not pronounced” value in data set [2] (halibut about 1.5 kg) is listed as “about 2 minutes”. Also, the “time until fish showed signs of fatigue” value in data set [3] (about 16° C., mackerel about 700 g) is listed as “about 5 minutes”.
